Test results: ChEMBL document CHEMBL2163299, “Cytotoxic effects of combination of oxidosqualene cyclase inhibitors with atorvastatin in human cancer cells” (J Med Chem, 2012)
Calls of active or inactive are those of the source. No cut-off for these calls is given here.

Experiments:
in vitro = settings: pampa, pH 6.5
Description: Apparent permeability of compound at pH 6.5 by PAMPA

HeLa = test: cells; settings: Homo sapiens, 72 h
Description: Cytotoxicity against human HeLa cells after 72 hrs by MTT assay

LN-18 [1] = test: Induction of [14C]acetate incorporation in human LN18 cells at 2 uM after 24 hrs by Beta-counting in presence of 2.5 to 10 uM atorvastatin; format: functional, cell-based
KB = test: Cytotoxicity against human KB cells after 72 hrs by MTT assay; format: functional, cell-based
OVCAR = test: Cytotoxicity against human OVCAR cells after 72 hrs by MTT assay; format: functional, cell-based
[2] = pampa, pH 6.5
Description: Permeability of compound at pH 6.5 assessed as compound binding to lipid membrane by PAMPA

LN-18 [3] = test: (§1) Cytotoxicity against human LN18 cells assessed as reduction in cell survival after 72 hrs by MTT assay; format: functional, cell-based
[4] = as §1; format: functional, cell-based; settings: LN-18, 72 h
Caco-2 = test: cells; settings: Homo sapiens, Caco-2, 72 h
Description: Cytotoxicity against human Caco2 cells after 72 hrs by MTT assay

[5] = Chemical stability of compound at pH 7.4 after 24 hrs; format: physicochemical; settings: buffer, pH 7.4, 24 h
[6] = Chemical stability of compound at pH 4.0 after 24 hrs; format: physicochemical; settings: buffer, pH 4, 24 h
LN-229 [7] = test: Induction of [14C]acetate incorporation in human LN229 cells at 2 uM after 24 hrs by Beta-counting; format: functional, cell-based
[8] = Cytotoxicity against human Me300 cells after 72 hrs by MTT assay; format: functional, cell-based; settings: Me300, 72 h
LN-229 [9] = test: (§2) Cytotoxicity against human LN229 cells assessed as reduction in cell survival after 72 hrs by MTT assay; format: functional, cell-based
[10] = as §2; format: functional, cell-based; settings: LN-229, 72 h
LN-229 [11] = test: Inhibition of DNA synthesis in human LN229 cells assessed as inhibition of tritiated thymidine incorporation at 1 to 3 uM after 24 hrs by beta counting; format: functional, cell-based
MCF7 = test: cells; settings: Homo sapiens, MCF7, 72 h
Description: Cytotoxicity against human MCF7 cells after 72 hrs by MTT assay

physchem = settings: 1-octanol/TAPSO buffer, pH 7.4
Description: 1-Octanol-TAPSO buffer distribution coefficient, log D of the compound at pH 7.4 by shake-flask method

[12] = Cytotoxicity against human HCEC cells assessed as cell death at 4 to 10 uM after 72 hrs by MTT assay in presence of atorvastatin; format: cell-based
LNCaP = test: Cytotoxicity against human LNCAP cells after 72 hrs by MTT assay; format: functional, cell-based
LN-18 [13] = test: Inhibition of DNA synthesis in human LN18 cells assessed as inhibition of tritiated thymidine incorporation at 1 to 3 uM after 24 hrs by beta counting; format: functional, cell-based
A549 = test: Cytotoxicity against human A549 cells after 72 hrs by MTT assay; format: functional, cell-based; settings: A549, 72 h
LN-18 [14] = test: Induction of [14C]acetate incorporation in human LN18 cells at 2 uM after 24 hrs by Beta-counting; format: functional, cell-based
[15] = Cytotoxicity against human LNZ308 cells after 72 hrs by MTT assay; format: functional, cell-based; settings: LNZ308, 72 h
cells = settings: Homo sapiens, HCEC, 72 h
Description: Cytotoxicity against human HCEC cells assessed as reduction in cell survival after 72 hrs by MTT assay

LN-18 [16] = test: Cytotoxicity against human LN18 cells at 2 to 4 uM after 72 hrs by MTT assay in presence of atorvastatin; format: functional, cell-based
LN-229 [17] = test: Induction of [14C]acetate incorporation in human LN229 cells at 2 uM after 24 hrs by Beta-counting in presence of 2.5 to 10 uM atorvastatin; format: functional, cell-based
LN-229 [18] = test: Cytotoxicity against human LN229 cells at 2 uM after 72 hrs by MTT assay in presence of atorvastatin; format: functional, cell-based

C=CCN(C)CCCCCCOc1ccc(C(=O)c2ccc(Br)cc2)c(F)c1.O=C(O)/C=C/C(=O)O
Papp (in vitro): 0.12 ×10⁻⁶ cm/s | IC50 (HeLa): 2.89 µM | Activity (LN-18 [1]): inactive | IC50 (KB): 2.88 µM | IC50 (OVCAR): > 30 µM | permeability [2]: 20% | Activity (LN-18 [3]): Dose-dependent effect | IC50 [4]: 6.1 µM | IC50 (Caco-2): 2.99 µM | Stability [5]: Stable | Stability [6]: Stable | Activity (LN-229 [7]): Active | IC50 [8]: > 30 µM | Activity (LN-229 [9]): Dose-dependent effect | IC50 [10]: 8.8 µM | inhibition (LN-229 [11]): Active | IC50 (MCF7): 6.77 µM | logD (physchem): 3.92 | Activity [12]: Toxic | IC50 (LNCaP): > 30 µM | inhibition (LN-18 [13]): Active | IC50 (A549): 11.3 µM | Activity (LN-18 [14]): Active | IC50 [15]: 5.26 µM | IC50 (cells): 3.8 µM | Activity (LN-18 [16]): Active | Activity (LN-229 [17]): inactive | Activity (LN-229 [18]): Active
